In PubChem BioAssay (NCI):
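48-hour exposure; five concentrations; linearly interpolated endpoints. Abbreviation: GI50, concentration required for 50% inhibition of growth. Definition used: TGI = concentration required for complete inhibition of growth.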

How the values were obtained:
Test in all cases: NCI anticancer screen, dose series, 48 h
HCT-116 colon = system: HCT-116 colon
SNB-19 CNS = system: SNB-19 CNS
RXF 393 renal = system: RXF 393 renal
A498 renal = system: A498 renal
MDA-MB-435 = system: MDA-MB-435
MALME-3M melanoma = system: MALME-3M melanoma
OVCAR-4 ovarian = system: OVCAR-4 ovarian
MCF7 breast = system: MCF7 breast
HOP-92 NSCLC = system: HOP-92 NSCLC
SN12C renal = system: SN12C renal

| SMILES | GI50 (HCT-116 colon) [µM] | TGI (HCT-116 colon) [µM] | GI50 (SNB-19 CNS) [µM] | TGI (SNB-19 CNS) [µM] | GI50 (RXF 393 renal) [µM] | TGI (RXF 393 renal) [µM] | GI50 (A498 renal) [µM] | TGI (A498 renal) [µM] | GI50 (MDA-MB-435) [µM] | TGI (MDA-MB-435) [µM] | GI50 (MALME-3M melanoma) [µM] | TGI (MALME-3M melanoma) [µM] | GI50 (OVCAR-4 ovarian) [µM] | TGI (OVCAR-4 ovarian) [µM] | GI50 (MCF7 breast) [µM] | TGI (MCF7 breast) [µM] | GI50 (HOP-92 NSCLC) [µM] | TGI (HOP-92 NSCLC) [µM] | GI50 (SN12C renal) [µM] | TGI (SN12C renal) [µM] |
| --- | --- | --- | --- | --- | --- | --- | --- | --- | --- | --- | --- | --- | --- | --- | --- | --- | --- | --- | --- | --- |
| O=C(Nc1ccccc1Cl)c1cnc2ccc(C3CCNCC3)cn12 | 13.4 | > 100 | > 87.7 | > 100 | 0.802 | 4.84 | 1.49 | > 45.5 | 32.6 | > 100 | 22.1 | > 94.5 | > 75.1 | > 100 | > 68.9 | > 100 | 0.703 | 7.28 | 3.71 | > 100 |
| CC1CCC2(OC1)OC1CC3C4CC=C5CC(OC6OC(CO)C(OC7OC(C)C(OC8OC(C)C(O)C(O)C8O)C(O)C7O)C(O)C6OC6OC(C)C(O)C(O)C6O)CCC5(C)C4CCC3(C)C1C2C (centres undefined) |  | 1.92 |  | 2.4 |  | 2.05 |  | 1.55 |  | 1.18 |  | 1.5 |  | 1.33 |  | 3.25 |  | 1.9 |  | 1.04 |
| CNC(=O)c1cc(Oc2ccc3nc(NC(=O)Nc4ccc(Cl)c(Cl)c4)sc3c2)ccn1 | 1.88 | 4.35 | 1.99 | 3.98 | 1.84 | 3.65 | 2.93 | 6.64 | 2.02 | 4.62 | 1.51 | 3.3 | 2.06 | 4.03 | 2.65 | > 100 | 2.66 | 5.39 | 3.92 | > 100 |
| CCN(CC)c1ccc(/C=N/NC(=O)c2ccc(Nc3ccnc(C(F)(F)F)c3)cc2)c(O)c1 | 0.141 | 1.34 | 0.39 | > 73.6 | 0.156 | 0.44 | 0.479 | 10.6 | 0.454 | 7.79 | 0.482 | 5.7 | 0.152 | > 100 | 0.326 | > 100 | 1.05 | > 100 | 0.395 | > 100 |
| COc1ccc(C2CC(=O)Nc3c2c(C)nn3-c2nc3ccccc3[nH]2)cc1 (centres undefined) | 2.12 | 4.38 | 4.72 | > 100 | 2.63 | 8.92 | 1.89 | 5.46 | 2.55 | 6.84 | 2.22 | 8.04 | 3.71 | > 59.1 | 3.11 | > 34 | 2.34 | 6.72 | 3.28 | > 53.7 |
| O=C(O)CC(Cc1ccc2c(c1)OCO2)C(=O)O (centres undefined) |  | > 100 |  | > 100 |  | > 100 |  | > 100 |  | > 100 |  | > 100 |  | > 100 |  | > 100 |  | > 100 |  | > 100 |
| N#C/C(=C\c1cn(-c2ccccc2)c2ccccc12)C(=O)O | 34.7 | > 100 | 54.3 | > 100 | 28.7 | > 100 | 13.4 | 35 | 39.4 | > 100 | > 100 | > 100 | 39.1 | > 100 | 27.4 | > 100 | 33.9 | > 100 | 51.1 | > 100 |
| Cc1ccc(NC(=O)c2ccnc(C(F)(F)F)c2)cc1-c1cc(OCCO)nc(N2CCOCC2)c1 | 0.7 | > 100 | 3.64 | 19.2 | 1.94 | 10.4 | 1.06 | 3.74 | 0.391 | 1.81 | 0.108 | 0.66 | 3.95 | 21.5 | 2.28 | 17.8 | 0.196 | 4.78 | 3.31 | 28.6 |
| O=C(O)C(/C=C/c1ccco1)=N\Nc1nc(-c2ccc(Cl)cc2)cs1 | 11.6 | > 50 | 9.64 | > 50 | 10.4 | 28.4 | > 50 | > 50 | 11.3 | > 50 | 35.8 | > 50 | 9.41 | > 50 | 10.2 | 40.6 | 10.1 | 49.4 | 13.2 | > 50 |
| S=C(Nc1ccccc1)c1ccccn1 | 51.3 | > 100 | > 100 | > 100 | 40.3 | > 100 | > 100 | > 100 | 80.6 | > 100 | > 100 | > 100 | 52.4 | > 100 | > 100 | > 100 | 54.3 | > 100 | 95.9 | > 100 |
| CC(=O)OCC(=O)[C@@]1(O)[C@H](C)C[C@H]2[C@@H]3C=C(C)C4=Cc5c(cnn5-c5ccc(F)cc5)C[C@]4(C)[C@H]3[C@@H](O)C[C@@]21C | 1.66 | 3.5 | 2.03 | 6.27 | 0.709 | 2.35 | 1.48 | 3.15 | 2.35 | 7.02 | 2.36 | 8.98 | 2.12 | 11.5 | 1.89 | 6.24 |  | 5.87 | 1.89 | 7.08 |
| COC(=O)c1c2c(c(C)[n+]([O-])c1C)C(=O)C=C(NCc1ccc(Cl)cc1)C2=O | 0.249 | 1.05 | 1.16 | 2.39 | 1.22 | 2.53 | 1.21 | 2.47 | 0.0895 | 0.229 | 0.157 | 0.381 | 0.229 | 1.03 | 0.267 | 0.98 | 1.93 | 4.09 | 0.309 | 1.24 |
